Laboratory results as given in patent US10653676B2 (Dana-Farber Cancer Institute, Inc., priority 2010, dated 2020).

Legend:
[1] = test system: HR pathway-proficient breast tumor line; settings: preliminary xenograft studies, data not shown
Description: Preliminary breast cancer xenograft studies with one HR pathway-proficient breast tumor line have been conducted.

[2] = target: T1, USP1/UAF1 complex (Homo sapiens, UniProt O94782, G670A/G671A); settings: bioactive libraries; in the range of Al-Ub-treated positive control; previously shown, US 2008/0167229 A1; cited from earlier work
T1 construct: This modified full length USP1 clone was PCR amplified and subcloned into pFastBac-HT vectors; His tag (N); made in house; host or cells: Sf9 insect cells (baculovirus)
T1 sequence (O94782 whole entry G670A/G671A): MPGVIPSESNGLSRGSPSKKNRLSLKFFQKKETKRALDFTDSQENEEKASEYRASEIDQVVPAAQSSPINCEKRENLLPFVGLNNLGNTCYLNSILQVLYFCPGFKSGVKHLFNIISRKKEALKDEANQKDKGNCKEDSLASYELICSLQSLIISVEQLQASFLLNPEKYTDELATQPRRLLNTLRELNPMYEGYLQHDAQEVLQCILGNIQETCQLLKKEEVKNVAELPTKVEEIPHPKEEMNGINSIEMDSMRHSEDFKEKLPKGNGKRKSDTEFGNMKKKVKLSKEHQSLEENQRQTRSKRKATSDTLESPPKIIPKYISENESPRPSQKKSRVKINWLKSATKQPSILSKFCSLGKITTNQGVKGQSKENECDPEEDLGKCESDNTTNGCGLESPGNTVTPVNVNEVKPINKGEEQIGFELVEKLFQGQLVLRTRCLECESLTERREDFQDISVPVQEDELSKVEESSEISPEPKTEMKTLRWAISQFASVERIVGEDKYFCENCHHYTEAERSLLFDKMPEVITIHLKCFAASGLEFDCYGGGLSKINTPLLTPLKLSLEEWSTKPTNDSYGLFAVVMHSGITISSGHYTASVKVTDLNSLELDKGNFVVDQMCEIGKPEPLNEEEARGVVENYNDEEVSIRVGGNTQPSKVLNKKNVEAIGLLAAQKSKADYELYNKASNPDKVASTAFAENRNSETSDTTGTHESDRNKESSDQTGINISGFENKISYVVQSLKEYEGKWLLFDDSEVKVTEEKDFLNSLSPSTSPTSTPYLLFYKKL
T1 sequence (Q8TAF3 whole entry partner): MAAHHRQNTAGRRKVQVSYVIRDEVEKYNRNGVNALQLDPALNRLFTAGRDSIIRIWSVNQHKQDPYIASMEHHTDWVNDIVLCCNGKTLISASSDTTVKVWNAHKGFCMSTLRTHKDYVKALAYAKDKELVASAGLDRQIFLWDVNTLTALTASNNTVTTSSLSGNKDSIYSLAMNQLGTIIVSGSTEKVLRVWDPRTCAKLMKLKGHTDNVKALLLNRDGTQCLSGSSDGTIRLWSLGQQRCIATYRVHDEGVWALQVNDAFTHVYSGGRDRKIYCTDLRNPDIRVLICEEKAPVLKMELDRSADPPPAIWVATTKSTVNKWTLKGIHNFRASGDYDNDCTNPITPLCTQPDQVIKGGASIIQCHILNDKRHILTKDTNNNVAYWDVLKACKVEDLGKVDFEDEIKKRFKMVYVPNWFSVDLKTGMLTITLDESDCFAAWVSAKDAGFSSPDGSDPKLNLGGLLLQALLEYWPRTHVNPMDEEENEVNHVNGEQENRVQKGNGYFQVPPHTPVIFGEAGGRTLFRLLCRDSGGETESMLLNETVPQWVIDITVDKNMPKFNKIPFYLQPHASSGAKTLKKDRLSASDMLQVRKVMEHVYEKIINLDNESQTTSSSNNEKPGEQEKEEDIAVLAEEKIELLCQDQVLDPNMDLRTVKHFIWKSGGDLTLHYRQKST

[3] = test system: HeLa cells; assay: DNA damage response markers by immunoblotting; format: cell-based, human; settings: 24 hrs, MMC 1 μM positive control, FIG. 9A
Experimental: FIG. 9 is a composite figure showing that C527 causes DNA damage and inhibits the proliferation of tumor cells. […] HeLa cells were treated with C527 at the indicated concentrations for 24 hrs, and cells were subjected to immunoblotting. Mitomycin C (MMC, 1 μM) was used as a positive control. […] HeLa cells were seeded in a 6-well plate and treated with C527 at the indicated concentrations. Cell proliferation was evaluated using a clonogenic assay.
Impaired HR integrity may lead to genotoxic effect. Genotoxic agents are known to directly activate DNA damage response pathways, resulting in FANCD2 monoubiquitination and CHK1 phosphorylation (FIG. 9A).

[4] = target: T1, USP1/UAF1 complex; assay: high throughput screening for inhibitors of USP1 deubiquitinating activity; format: biochemical; settings: library of approximately 150,000 compounds
Experimental: The ubiquitin-Rho based enzyme assay for high throughput screening was established in a 384-well format. The reaction buffer containing and USP1/UAF1 complex were added in 384 well plates using automated liquid handling robot-Bio-Tek Microfill (Bio-Tek Instrments Inc., VT), followed by addition of the compounds (in DMSO) from the compound library plates to wells using a pin transfer robotic system at a final concentration of 10 μM. The reaction was composed of 0.1 nM purified USP1/UAF complex, 75 nM ubiquitin Rhodamine (Ub-Rho, Boston Biochem, U-600) and 2 μM ubiquitin. Fluorescence was monitored in a FluoStar Galaxy Fluorometer (BMG Labtech). Fluorescence emission at 535 nm (λex=485 nm) was measured in an automated plate reader Envision 2 (Perkin Elmer, Mass.).
(§1) In order to develop a highly sensitive assay with easy readout for high throughput detection, the fluorogenic compound Ubiquitin-7-amido-4-methylcoumarin (AMC-Ub, Boston Biochem) was used as a substrate for USP1/UAF1 enzyme complex. USP1 catalyzes the cleavage of AMC-Ub, releasing free AMC moiety, which leads to increase in fluorescence emission at 460 nm (λex=380 nm). Dang et al. (1998) Biochemistry 37:1868-79. Catalytic activity towards AMC-Ub increases 35 fold compared to USP1 enzyme alone. Initial enzyme assay development was performed in 96-well plates with 100 μl reaction volume containing 20 mM HEPES-KOH, 0.1 mg/ml ovalbumin (Sigma), 0.5 mM EDTA, and 10 mM DTT. 2.5 nM USP1/UAF1 enzyme complex was mixed with the reaction buffer, incubated at 37° C. for 10 minutes and then 0.3 μM AMC-Ub was added. Fluorescence was measured using a Fluostar Galaxy Fluorometer (BMG Labtech Inc.).
Once the preliminary enzyme assay was established in 96-well format, it was optimized for 384 wells for high throughput screening (HTS) of inhibitors. The major points to be considered were the volume of the reaction and amount of AMC-Ub substrate to be used in the assay. Since the price of AMC-Ub is very high, in order to make it a feasible assay for HTS, lowest workable amount of the AMC conjugate was used. Reaction volume was minimized to 30 μl in order to meet the recommendation of ICCB-L screening facility (Harvard). In the preliminary optimization experiment, a series of pilot experiments were performed with varying AMC-Ub concentrations (0.025 μM to 0.2 μM), along with the varying concentration of USP1/UAF1 complex (0.2 nM to 3.2 nM). […] After incubating the enzyme and buffer at 37° C. for 10 minutes, AMC-Ub was added and fluorescence emission at 460 nm (λex=380 nm) was measured in an automated plate reader Envision 2 (Perkin Elmer). Fluorescence reading for all time points up to one hour was noted and the data for different AMC-Ub concentration range was plotted with each USP1/UAF1 enzyme complex concentration. […]

[5] = test system: endogenous DUB enzyme complexes; assay: HA-Ub-VS labelling of other endogenous DUBs in HeLa cell extracts; format: biochemical, human; settings: HeLa cell extracts pretreated 4 h (Ub-Ald 5 μM), then Ub-VS 40 min at 30° C.; FIG. 7
Experimental: FIG. 7 is a composite figure depicting preferential inhibition of the activity of native USP1/UAF1 by C527. HeLa cell extracts were incubated with ubiquitin-aldehyde (Ub-Ald, 5 μM) or C527 at indicated concentrations for 4 h, followed by the addition of 0.5 μM Ub-Vs for 40 min. The reaction was split into two aliquots and subjected to immunoblotting for HA or USP1, respectively.
The ability of C527 to inhibit the deubiquitinating activity of native USP1 complexes derived from human cells was determined next (FIG. 7). For this purpose, the HA-tagged ubiquitin-VS, an affinity reagent known to covalently modify and trap active DUB enzymes in cell extracts was used. Cell extracts prepared from HeLa cells were pretreated with increasing concentrations of C527 for 4 h, followed by the incubation with Ub-VS for 40 min at 30° C. The enzymatic activity of endogenous DUBs was indicated by the conjugation of Ub-VS, detected as HA-labeling (see FIG. 7, high molecular weight bands). […] Ub-VS conjugation was inhibited by ubiquitin-aldehyde (Ub-Ald), a non-specific inhibitor of DUBs (lane 3).

[6] = target: T1, USP1/UAF1 complex; assay: ubiquitin-AMC in vitro deubiquitination enzyme assay; format: biochemical; settings: 4 hour preincubation; AMC-Ub in vitro enzyme assay; read-out: IC50
Experimental: Purified USP1/UAF1 complex was incubated with 1 μM C527 or DMSO for indicated time, followed by the addition of Ub-AMC at 0.5 μM final concentration. The fluorescence at […] was measured to indicate the enzymatic activity of USP1. […] 5A.
The in vitro enzymatic assays were performed using purified proteins from Sf9 cells as described previously (Cohn et al.). The assays using ubiquitin-AMC (Ub-7-amido-4-methylcoumarin; Boston Biochem) as substrate was carried out in a reaction buffer containing 20 mM HEPES-KOH (pH 7.8), 20 mM NaCl, 0.1 mg/ml ovalbumin, 0.5 mM EDTA and 10 mM dithiothreitol. The fluorescence was measured by FluoStar Galaxy Fluorometer (BMG Labtech). For the Ub-vinylsulfone (VS) assay, the proteins were incubated with Ub-VS at 0.5 μM final concentration for 1 h at 30° C., followed by the immunoblotting analysis.
as §1, with “Catalytic activity towards AMC-Ub increases 35 fold compared to USP1 enzyme alone.” left out
Hits from the initial screening were analyzed further in secondary screening. In this step, the compounds were re-tested for inhibition using the AMC-Ub in vitro enzyme assay. After reconfirming inhibition, different concentration range of the inhibitors were tested to show dose dependency of inhibition and IC50 calculation.

Row | identified as inhibitor of USP1 in initial in vitro screening [4] | Compound | fluorescence signal in high throughput screen [2] | further results
1 | – | CC(C)C[C@H](NC(=O)[C@H](Cc1ccccc1)NC(=O)c1cnccn1)B(O)O [Bortezomib] | – | FA/BRCA pathway [1]: inhibited the FA/BRCA pathway
2 | – | CC1(C)CCC2=C(O1)c1ccccc1C(=O)C2=O [β-lapachone] | substantial low fluorescence signal | –
3 | – | CO[C@@]12[C@H](COC(N)=O)C3=C(C(=O)C(C)=C(N)C3=O)N1C[C@@H]1N[C@@H]12 [MMC, mitomycin C] | – | markers of the DNA damage response (FANCD2 monoubiquitination, CHK1 phosphorylation) [3]: can activate markers of the DNA damage response
4 | – | CCCCCCCCCCCCCCCC(=O)C1=C(O)C(CO)OC1=O (centres unmarked) [RK-682] | substantial low fluorescence signal | –
5 | inhibitors of USP1 | NC1=C(Cl)C(=O)c2ccccc2C1=O [Formula III (933)] | – | –
6 | – | Ub-aldehyde [reference compound] | – | Ub-VS labeling of endogenous DUBs (HA-labeling) [5]: inhibited
7 | inhibitors of USP1 | O=C1Cc2ccccc2C(=O)N1Cc1ccco1 [Formula V (947)] | – | IC50 [6]: 7.5 µM
8 | inhibitors of USP1 | COc1ccc(CN2C(=O)Cc3ccccc3C2=O)cc1OC [Formula VI (009)] | – | IC50 [6]: 2.4 µM
9 | – | CC[N+](C)(CC)CCC[n+]1c(-c2ccccc2)c2cc(N)ccc2c2ccc(N)cc21.[I-].[I-] [Biomol AP401 (propidium iodide), propidium iodide] | substantial low fluorescence signal | –
